From patent publication US11654413B2, “System and method for enhancing effectiveness of products generated from ionization, oxidation, photooxidation, photocatalytic, and photochemical reactions” (BIS SCIENCE LLC., priority 2021, dated 2023)
Read-outs that look alike come from different tables or passages of the source.

Experiments:
[1] = tested on: Staphylococcus aureus ATCC 6538; conditions: contact time 5 minutes
Text: The test substance was hydrogen peroxide at 1 ppm and at 0.3%, which was exposed or not exposed to photons with a wavelength from 0.001 nm-845 nm and applied to target, which included a biological medium inoculated with a viable bacteria concentration of Staphylococcus aureus ATCC 6538. Further, it may be appreciated that the control is the same microorganism.

[2] = tested on: E. coli; test: FIG. 2 microbial reduction by photon enhanced solution; format: cell-based
[3] = tested on: microbial counts; conditions: 1 part per million, 5 minute contact time
Text: In an example embodiment of a system for progressive reduction of the microbial count in ambient air, a room with 1,000,000 colony forming units (CFUs) is equipped with a system for performing the methods as disclosed herein. A small micron photon/phonon enhanced antimicrobial dry fog of an enhanced oxidizing agent is continuously administered into the ambient air through an existing HVAC system at a concentration of less than 1 part per million.

| Compound | Average CFU/ML [1] [CFU/ML] | CFU/ML ([1]; Replicate 1) [CFU/ML] | CFU/ML ([1]; Replicate 2) [CFU/ML] | microbial (E. coli) reduction [2] [%] | microbial reduction [3] |
| --- | --- | --- | --- | --- | --- |
| OO [1 ppm H2O2 no photon activation, hydrogen peroxide] | 4.05E+06 | 4.10E+06 | 4.10E+06 |  |  |
| OO [.3% H2O2 no photon activation, hydrogen peroxide] | 4.05E+06 | 4.10E+06 | 4.00E+06 |  |  |
| OO [hydrogen peroxide] |  |  |  | 0.0 |  |
| OO [standard hydrogen peroxide, hydrogen peroxide] |  |  |  |  | little or no microbial reduction |
